Assay results from patent US8518945B2, “Pyrrolopyrazine kinase inhibitors” (Hoffmann-La Roche Inc., priority 2010, dated 2013).

Biological target: T1, h-jak3(810-1124) (JAK3: Recombinant human kinase domain) (Homo sapiens, UniProt P52333)
T1 construct: jak3(810- 1124)-sf9-c; made in house; host or cells: Sf9
Assay: Determination of IC50 of Janus Kinase (JAK) inhibition: JAK3 radioactive end-point 33P-ATP kinase assay
Format: biochemical
Settings: no additive; ATP 1.5 uM, peptide 50 uM, 20 minutes, room temperature; read-out: Ic50 h-jak3(810-1124)-sf9-c: no additive

T1 sequence (P52333 810-1124): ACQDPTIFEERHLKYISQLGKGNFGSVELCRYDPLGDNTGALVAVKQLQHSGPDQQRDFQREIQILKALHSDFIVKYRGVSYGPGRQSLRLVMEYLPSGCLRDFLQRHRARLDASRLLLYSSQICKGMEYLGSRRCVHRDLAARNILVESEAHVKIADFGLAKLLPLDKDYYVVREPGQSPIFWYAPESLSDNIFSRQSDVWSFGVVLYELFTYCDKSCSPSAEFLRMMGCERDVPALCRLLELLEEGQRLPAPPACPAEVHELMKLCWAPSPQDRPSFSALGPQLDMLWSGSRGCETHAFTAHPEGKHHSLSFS

Row | SMILES | IC50 [nM]
1 | CC(C)NC(=O)c1cccc(-c2cnc3[nH]cc(C(=O)N[C@H](C)C(=O)N4CC(C#N)C4)c3n2)c1 [Example I-111, 2-(3-Isopropylcarbamoyl-phenyl)-5H-pyrrolo[2,3-b]pyrazine-7-carboxylic acid [(R)-2-(3-cyano-azetidin-1-yl)-1-methyl-2-oxo-ethyl]-amide] | 5.71
2 | C[C@@H](NC(=O)c1c[nH]c2ncc(-c3cc(C4=CCCC4)ccn3)nc12)C(=O)N1CC(C#N)C1 [Example I-113, 2-(4-Cyclopent-1-enyl-pyridin-2-yl)-5H-pyrrolo[2,3-b]pyrazine-7-carboxylic acid [(R)-2-(3-cyano-azetidin-1-yl)-1-methyl-2-oxo-ethyl]-amide] | 3.71
3 | N#CC1CCN(C(=O)[C@H](NC(=O)c2c[nH]c3ncc(C4CC4)nc23)c2ccccc2)CC1 [Example I-114, 2-Cyclopropyl-5H-pyrrolo[2,3-b]pyrazine-7-carboxylic acid [(R)-2-(4-cyano-piperidin-1-yl)-2-oxo-1-phenyl-ethyl]-amide] | 16.3
4 | CC(C)(C)[C@@H](NC(=O)c1c[nH]c2ncc(-c3ccccn3)nc12)C(=O)N1CCC(C#N)CC1 [Example I-115, 2-Pyridin-2-yl-5H-pyrrolo[2,3-b]pyrazine-7-carboxylic acid [(R)-1-(4-cyano-piperidine-1-carbonyl)-2,2-dimethyl-propyl]-amide] | 2.92
5 | N#CC1CCN(C(=O)[C@@H](CC2CC2)NC(=O)c2c[nH]c3ncc(C4CC4)nc23)CC1 [Example I-116, 2-Cyclopropyl-5H-pyrrolo[2,3-b]pyrazine-7-carboxylic acid [(R)-2-(4-cyano-piperidin-1-yl)-1-cyclopropylmethyl-2-oxo-ethyl]-amide] | 2.73
6 | CC(C)(C)[C@@H](NC(=O)c1c[nH]c2ncc(-c3cc(C(F)(F)F)ccn3)nc12)C(=O)N1CCC(C#N)CC1 [Example I-118, 2-(4-Trifluoromethyl-pyridin-2-yl)-5H-pyrrolo[2,3-b]pyrazine-7-carboxylic acid [(R)-1-(4-cyano-piperidine-1-carbonyl)-2,2-dimethyl-propyl]-amide] | 6.05
7 | CC(C)(C)[C@@H](NC(=O)c1c[nH]c2ncc(-c3cn(CC4CC4)cn3)nc12)C(=O)N1CCC(C#N)CC1 [Example I-119, 2-(1-Cyclopropylmethyl-1H-imidazol-4-yl)-5H-pyrrolo[2,3-b]pyrazine-7-carboxylic acid [(R)-1-(4-cyano-piperidine-1-carbonyl)-2,2-dimethyl-propyl]-amide] | 2.74
8 | CC(C)(C)[C@@H](NC(=O)c1c[nH]c2ncc(-c3cn(C4CCCC4)cn3)nc12)C(=O)N1CCC(C#N)CC1 [Example I-120, 2-(1-Cyclopentyl-1H-imidazol-4-yl)-5H-pyrrolo[2,3-b]pyrazine-7-carboxylic acid [(R)-1-(4-cyano-piperidine-1-carbonyl)-2,2-dimethyl-propyl]-amide] | 3.7
9 | CC(C)(C)[C@@H](NC(=O)c1c[nH]c2ncc(-c3cn(CC(F)(F)F)cn3)nc12)C(=O)N1CCC(C#N)CC1 [Example I-122, 2-[1-(2,2,2-Trifluoro-ethyl)-1H-imidazol-4-yl]-5H-pyrrolo[2,3-b]pyrazine-7-carboxylic acid [(R)-1-(4-cyano-piperidine-1-carbonyl)-2,2-dimethyl-propyl]-amide] | 4.05
10 | COc1ccnc(-c2cnc3[nH]cc(C(=O)N[C@@H](C(=O)N4CCC(C#N)CC4)C(C)(C)C)c3n2)c1 [Example I-127, 2-(4-Methoxy-pyridin-2-yl)-5H-pyrrolo[2,3-b]pyrazine-7-carboxylic acid [(R)-1-(4-cyano-piperidine-1-carbonyl)-2,2-dimethyl-propyl]-amide] | 3.56
11 | CC(C)(C)[C@@H](NC(=O)c1c[nH]c2ncc(-c3ccc(C(F)(F)F)cc3)nc12)C(=O)N1CCC(C#N)CC1 [Example I-128, 2-(4-Trifluoromethyl-phenyl)-5H-pyrrolo[2,3-b]pyrazine-7-carboxylic acid [(R)-1-(4-cyano-piperidine-1-carbonyl)-2,2-dimethyl-propyl]-amide] | 2.81
12 | CC(C)(C)[C@@H](NC(=O)c1c[nH]c2ncc(-c3cc(OC4CCCC4)ccn3)nc12)C(=O)N1CCC(C#N)CC1 [Example I-130, 2-(4-Cyclopentyloxy-pyridin-2-yl)-5H-pyrrolo[2,3-b]pyrazine-7-carboxylic acid [(R)-1-(4-cyano-piperidine-1-carbonyl)-2,2-dimethyl-propyl]-amide] | 113
13 | CC(C)(C)[C@@H](NC(=O)c1c[nH]c2ncc(C3CC3)nc12)C(=O)N1CCc2ncccc2C1 [Example I-135, 2-Cyclopropyl-5H-pyrrolo[2,3-b]pyrazine-7-carboxylic acid [(R)-1-(7,8-dihydro-5H-[1,6]naphthyridine-6-carbonyl)-2,2-dimethyl-propyl]-amide] | 6.11
14 | N#CC1CN(C(=O)[C@H](NC(=O)c2c[nH]c3ncc(C4CC4)nc23)C2CCOCC2)C1 [Example I-136, 2-Cyclopropyl-5H-pyrrolo[2,3-b]pyrazine-7-carboxylic acid [(R)-2-(3-cyano-azetidin-1-yl)-2-oxo-1-(tetrahydro-pyran-4-yl)-ethyl]-amide] | 7.11
15 | N#CC1CN(C(=O)[C@@H](NC(=O)c2c[nH]c3ncc(C4CC4)nc23)C2CCOCC2)C1 [Example I-137, 2-Cyclopropyl-5H-pyrrolo[2,3-b]pyrazine-7-carboxylic acid [(S)-2-(3-cyano-azetidin-1-yl)-2-oxo-1-(tetrahydro-pyran-4-yl)-ethyl]-amide] | 539
16 | CC(C)(C)[C@@H](NC(=O)c1c[nH]c2ncc(C3CC3)nc12)C(=O)N1CCc2ccccc21 [Example I-138, 2-Cyclopropyl-5H-pyrrolo[2,3-b]pyrazine-7-carboxylic acid [(R)-1-(2,3-dihydro-indole-1-carbonyl)-2,2-dimethyl-propyl]-amide] | 19.1

The next compounds have a lower IC50 than those just listed; values first:

Row | IC50 [nM] | SMILES
17 | 0.97 | C[C@@H](NC(=O)c1c[nH]c2ncc(-c3cccc(C(=O)NCC4CC4)c3)nc12)C(=O)N1CC(C#N)C1 [Example I-112, 2-[3-(Cyclopropylmethyl-carbamoyl)-phenyl]-5H-pyrrolo[2,3-b]pyrazine-7-carboxylic acid [(R)-2-(3-cyano-azetidin-1-yl)-1-methyl-2-oxo-ethyl]-amide]
18 | 1.01 | CC(C)(C)[C@@H](NC(=O)c1c[nH]c2ncc(-c3cnn(-c4ccc(F)cc4)c3)nc12)C(=O)N1CCC(C#N)CC1 [Example I-117, 2-[1-(4-Fluoro-phenyl)-1H-pyrazol-4-yl]-5H-pyrrolo[2,3-b]pyrazine-7-carboxylic acid [(R)-1-(4-cyano-piperidine-1-carbonyl)-2,2-dimethyl-propyl]-amide]
19 | 1.67 | N#CC1CCN(C(=O)[C@H](NC(=O)c2c[nH]c3ncc(-c4cn(C5CCCC5)cn4)nc23)C2CC2)CC1 [Example I-121, 2-(1-Cyclopentyl-1H-imidazol-4-yl)-5H-pyrrolo[2,3-b]pyrazine-7-carboxylic acid [(R)-2-(4-cyano-piperidin-1-yl)-1-cyclopropyl-2-oxo-ethyl]-amide]
20 | 0.62 | C[C@@H](NC(=O)c1c[nH]c2ncc(-c3cccc(N4CCC(C)(C)C4)c3)nc12)C(=O)N1CC(C#N)C1 [Example I-123, 2-[3-(3,3-Dimethyl-pyrrolidin-1-yl)-phenyl]-5H-pyrrolo[2,3-b]pyrazine-7-carboxylic acid [(R)-2-(3-cyano-azetidin-1-yl)-1-methyl-2-oxo-ethyl]-amide]
21 | 1.37 | CC[C@H](C)[C@@H](NC(=O)c1c[nH]c2ncc(C3CC3)nc12)C(=O)N1CCC(C#N)CC1 [Example I-124, 2-Cyclopropyl-5H-pyrrolo[2,3-b]pyrazine-7-carboxylic acid [(1R,2S)-1-(4-cyano-piperidine-1-carbonyl)-2-methyl-butyl]-amide]
22 | 0.57 | C[C@@H](NC(=O)c1c[nH]c2ncc(-c3cccc(N4C[C@H]5C[C@H]5C4)c3)nc12)C(=O)N1CC(C#N)C1 [Example I-126, 2-[(1S,5R)-3-(3-Aza-bicyclo[3.1.0]hex-3-yl)-phenyl]-5H-pyrrolo[2,3-b]pyrazine-7-carboxylic acid [(R)-2-(3-cyano-azetidin-1-yl)-1-methyl-2-oxo-ethyl]-amide]
23 | 1.18 | N#CC1CCN(C(=O)[C@H](NC(=O)c2c[nH]c3ncc(-c4cc(OCC5CC5)ccn4)nc23)C2CC2)CC1 [Example I-129, 2-(4-Cyclopropylmethoxy-pyridin-2-yl)-5H-pyrrolo[2,3-b]pyrazine-7-carboxylic acid [(R)-2-(4-cyano-piperidin-1-yl)-1-cyclopropyl-2-oxo-ethyl]-amide]
24 | 2.58 | C[C@@H](NC(=O)c1c[nH]c2ncc(-c3cc(OCC4CC4)ccn3)nc12)C(=O)N1CC(C#N)C1 [Example I-131, 2-(4-Cyclopropylmethoxy-pyridin-2-yl)-5H-pyrrolo[2,3-b]pyrazine-7-carboxylic acid [(R)-2-(3-cyano-azetidin-1-yl)-1-methyl-2-oxo-ethyl]-amide]
25 | 0.49 | N#CC1CN(C(=O)[C@H](NC(=O)c2c[nH]c3ncc(-c4cn(-c5cc(F)ccc5F)cn4)nc23)C2CC2)C1 [Example I-132, 2-[1-(2,5-Difluoro-phenyl)-1H-imidazol-4-yl]-5H-pyrrolo[2,3-b]pyrazine-7-carboxylic acid [(R)-2-(3-cyano-azetidin-1-yl)-1-cyclopropyl-2-oxo-ethyl]-amide]
26 | 1.67 | N#CC1CN(C(=O)[C@H](NC(=O)c2c[nH]c3ncc(-c4cn(-c5cc(F)cc(F)c5F)cn4)nc23)C2CC2)C1 [Example I-133, 2-[1-(2,3,5-Trifluoro-phenyl)-1H-imidazol-4-yl]-5H-pyrrolo[2,3-b]pyrazine-7-carboxylic acid [(R)-2-(3-cyano-azetidin-1-yl)-1-cyclopropyl-2-oxo-ethyl]-amide]
27 | ≤ 0.32 | CCn1cc(-c2cnc3[nH]cc(C(=O)N[C@@H](C(=O)N4CCC(F)(F)C4)C4CC4)c3n2)cn1 [Example I-139, 2-(1-Ethyl-1H-pyrazol-4-yl)-5H-pyrrolo[2,3-b]pyrazine-7-carboxylic acid [(R)-1-cyclopropyl-2-(3,3-difluoro-pyrrolidin-1-yl)-2-oxo-ethyl]-amide]
